Test results from ChEMBL document CHEMBL5518167, “Degradation of Polo-like Kinase 1 by the Novel Poly-Arginine N-Degron Pathway PROTAC Regulates Tumor Growth in Nonsmall Cell Lung Cancer” (J Med Chem, 2024).
Active and inactive are the calls of the source. No cut-off for these calls is given here. Where a SMILES comes first, the peptide text is derived from it. Bridges are numbered along the chain shown (N, C = ends). [ ]: non-standard residue; d: D form. His(π-(CH2)8Ph) = N[C@@H](Cc1cncn1CCCCCCCCc1ccccc1)C(=O)O; pT = C[C@@H](OP(=O)(O)O)[C@H](N)C(=O)O; Ahx = NCCCCCC(=O)O

Legend:
[1] = test system: HeLa; assay: Cytotoxicity against human HeLa cells incubated for 24 hrs by MTT assay; format: functional, cell-based
[2] = test system: NCI-H1975; assay: Cytotoxicity against human NCI-H1975 cells incubated for 24 hrs by MTT assay; format: functional, cell-based; conditions: NCI-H1975, 24 h
[3] = test system: HeLa; assay: Cytotoxicity against human HeLa cells assessed as change in morphology at 18 uM incubated for 24 hrs by phase contrast microscopic assay; format: functional, cell-based
[4] = test system: A549; assay: Cytotoxicity against human A549 cells assessed as change in morphology at 25 uM incubated for 24 hrs by phase contrast microscopic assay; format: functional, cell-based
[5] = test system: PC-9; assay: Cytotoxicity against human PC-9 cells assessed as change in morphology at 25 uM incubated for 24 hrs by phase contrast microscopic assay; format: functional, cell-based
[6] = test system: A549; assay: Induction of cell cycle arrest in human A549 cells assessed as G2/M phase arrest at 10 uM incubated for 24 hrs by PI staining based flow cytometry analysis; format: functional
[7] = test system: NCI-H1975; assay: Induction of cell cycle arrest in human NCI-H1975 cells assessed as G2/M phase arrest at 10 uM incubated for 24 hrs by PI staining based flow cytometry analysis; format: functional
[8] = test system: HeLa; assay: Induction of cell cycle arrest in human HeLa cells assessed as delay in S phase progression at 10 uM incubated for 24 hrs by PI staining based flow cytometry analysis; format: functional
[9] = test system: NCI-H1975; assay: Induction of cell cycle arrest in human NCI-H1975 cells assessed as delay in S phase progression at 10 uM incubated for 24 hrs by PI staining based flow cytometry analysis; format: functional
[10] = test system: HeLa; assay: Induction of cell cycle arrest in human HeLa cells assessed as fold increase in S phase population at 10 uM incubated for 24 hrs by PI staining based flow cytometry analysis; format: functional
[11] = test system: NCI-H1975; assay: Induction of cell cycle arrest in human NCI-H1975 cells assessed as fold increase in S phase population at 10 uM incubated for 24 hrs by PI staining based flow cytometry analysis; format: functional
[12] = test system: PC-9; assay: Induction of cell cycle arrest in human PC-9 cells assessed as fold increase in S phase population at 10 uM incubated for 24 hrs by PI staining based flow cytometry analysis; format: functional
[13] = test system: A549; assay: Induction of apoptosis in human A549 cells at 25 uM incubated for 24 hrs by fluorescence microscopic analysis; format: functional, cell-based
[14] = test system: PC-9; assay: Antitumor activity against human PC-9 cells xenografted in nude mouse assessed as fold reduction in tumor size at 10 mg/kg, iv; format: functional
[15] = test system: NCI-H1975; assay: Antitumor activity against human NCI-H1975 cells harboring L858R/T790M double mutant xenografted in iv dosed nude mouse assessed as tumor growth inhibition administered for every 3 days in presence of 5 mg/kg osimertinib; format: functional, organism-based
[16] = test system: NCI-H1975; assay: Antitumor activity against human NCI-H1975 cells harboring L858R/T790M double mutant xenografted in nude mouse assessed as fold reduction in tumor size at 10 mg/kg, iv administered for every 3 days in presence of 5 mg/kg osimertinib; format: functional
[17] = test system: NCI-H1975; assay: Antitumor activity against human NCI-H1975 cells harboring L858R/T790M double mutant xenografted in nude mouse assessed as fold reduction in tumor growth at 10 mg/kg, iv administered for every 3 days in presence of 5 mg/kg osimertinib; format: functional
[18] = Toxicity in nude mouse xenografted with human NCI-H1975 cells assessed as change in body weight at 10 mg/kg, iv administered for every 3 days; format: organism-based; conditions: in vivo, 72 h
[19] = Protac activity at UBR/PLK1 in human PC-9 cells assessed as PLK1 degradation incubated for 24 hrs by immunoblotting analysis
[20] = test system: UBR/PLK1 (Homo sapiens); assay: as above; conditions: dose 5-25 µM
[21] = test system: UBR/PLK1 (Homo sapiens); assay: Protac activity at UBR/PLK1 in human PC-9 cells assessed as PLK1 degradation at 25 uM incubated for 24 hrs by immunoblotting analysis
[22] = test system: UBR/PLK1 (Homo sapiens); assay: Protac activity at UBR/PLK1 in human A549 cells assessed as PLK1 degradation at 30 uM incubated for 24 hrs by immunoblotting analysis
[23] = test system: UBR/PLK1 (Homo sapiens); assay: Protac activity at UBR/PLK1 in human NCI-H1975 cells assessed as PLK1 degradation at 30 uM incubated for 24 hrs by immunoblotting analysis
[24] = test system: UBR/PLK1 (Homo sapiens); assay: Protac activity at UBR/PLK1 in human PC-9 cells assessed as PLK1 degradation at 10 uM incubated for 2 to 24 hrs by immunoblotting analysis; conditions: time 2-24 hrs
[25] = test system: UBR/PLK1 (Homo sapiens); assay: Protac activity at UBR/PLK1 in human NCI-H1975 cells assessed as PLK1 degradation at 5 to 30 uM preincubated for 24 hrs followed by MG132 addition for 8 hrs by immunoblotting analysis; conditions: dose 5-30 µM, time 32.0 hrs

## C[C@@H](OP(=O)(O)O)[C@@H]1NC(=O)[C@H](Cc2cncn2CCCCCCCCc2ccccc2)NC(=O)[C@@H](NC(=O)CCCCCNC(=O)[C@H](CCCNC(=N)N)NC(=O)[C@H](CCCNC(=N)N)NC(=O)[C@H](CCCNC(=N)N)NC(=O)[C@H](CCCNC(=N)N)NC(=O)[C@H](CCCNC(=N)N)NC(=O)[C@H](CCCNC(=N)N)NC(=O)[C@H](CCCNC(=N)N)NC(=O)[C@H](CCCNC(=N)N)NC(=O)[C@H](CCCNC(=N)N)NC(=O)[C@H](CCCNC(=N)N)NC(=O)[C@H](CCCNC(=N)N)NC(=O)[C@@H](N)CCCNC(=N)N)CCC(=O)NCCCC[C@@H](C(N)=O)NC1=O (H-RRRRRRRRRRRR[Ahx]E[His(π-(CH2)8Ph)][pT]K-NH2; lactam 14-17)
[1]
  IC50: 18 µM
[2]
  IC50: 24.4 µM
[3]
  Activity: Active
[4]
  Activity: Active
[5]
  Activity: Active
[6]
  Activity: 10%
[7]
  Activity: 11%
[8]
  Activity: Active
[9]
  Activity: Active
[10]
  Activity: Active
[11]
  Activity: Active
[12]
  Activity: Active
[13]
  Activity: Active
[14]
  fold change (FC): 5.2
[15]
  Activity: Dose-Dependent Effect
[16]
  fold change (FC): 3.5
[17]
  fold change (FC): ~7
[18]
  Activity: Non-Toxic
[19]
  DC50: 12 µM
[20]
  Activity: Dose-Dependent Effect
[21]
  Activity: > 90%
[22]
  Emax: > 60%
[23]
  Emax: 95%
[24]
  Activity: Active
[25]
  Activity: inactive
